{
  "source": "patent US20240101602A1",
  "about": "“ANTIMICROBIAL PEPTIDES AND METHOD OF PREVENTING OR TREATING INFECTION BY USING THE SAME” (priority 2020, published 2024)",
  "key": {"[1]": {"system": "Pseudomonas syringae pv. syringae strain B728a", "conditions": "Pss B728a; Table 7"}, "in vitro": {"experiment": "in vitro", "assay_type": "cell-based", "conditions": "human, HEK293 cells", "protocol": "PepD3 was dissolved in water and filtered through a 0.2-μm filter. The peptide concentration was quantitated by UV280 to make a stock solution of 5120 μg/mL. The pepD3 stock solution was serially diluted in the serum-free DMEM. […] The serum-free DMEM medium without peptide was used as negative control. Cell viability was assessed using the Cell Titer 96 Aqueous One Solution Cell Proliferation Assay (Promega), in accordance with the manufacturer's instructions. The absorbance was measured with an Infinite M1000 pro (Tecan) at a wavelength of 490 nm. Data were normalized to the negative control to obtain the percentage of cell viability."}, "[2]": {"system": "Staphylococcus epidermidis ATCC 14990"}, "[3]": {"system": "Ralstonia solanacearum strain Pss4", "conditions": "Rs Pss4; optimal minimal medium, crude peptides (Table 9)"}, "[4]": {"system": "Pectobacterium carotovorum subsp. carotovorum", "assay_type": "cell-based", "in_short": "(§1)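 Bacteria were grown 4–6 h, set to OD600=0.08 in rich or minimal medium, then diluted 100-fold. This inoculum was mixed 1:1 with 2-fold serial peptide dilutions and incubated static at optimal temperature. MIC was read from growth and MBC taken as the lowest concentration giving no colonies.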"}, "Erwinia chrysanthemi": {"system": "Erwinia chrysanthemi", "assay_type": "cell-based", "in_short": "as §1"}, "red blood cells": {"system": "red blood cells", "assay_type": "cell-based, rat", "protocol": "Further, the hemolytic activity of the antimicrobial peptides was tested. EDTA-treated rat whole blood was centrifuged at 840×g for 3 minutes at 4° C. to separate blood cells and plasma. The plasma was removed, and the blood cells were washed three times with PBS having the same volume as the original blood volume by gently turning the centrifuge tube upside down. After washing, ten microliters of blood cells were diluted in PBS 2000 times to count the cells. Finally, red blood cells were diluted to 5×10^8 cells/mL in PBS. Peptides were dissolved in water and filtered through a 0.2-μm filter to make a stock solution. The peptide concentration was quantitated by UV280. The peptide solution was diluted in PBS to different concentrations (5 times of tested concentration). Twenty microliters of peptide in PBS were mixed with 80 μL of red blood cell solution in a 96-well plate (V-bottom). […] The concentration of heme contained in each well was measured by UV405 using Infinite M1000 pro (Tecan). The hemolytic activity was calculated using the following formula: Hemolytic activity=[(F−F0)/(Ft−F0)]×100% • F is UV405 of the peptide-treated sample; • F0 is UV405 of sample without peptide (negative control); • Ft is UV405 of the Triton-treated sample (positive control)."}, "[5]": {"system": "Xanthomonas oryzae pv. oryzae strain Xoo28", "conditions": "Xoo Xoo28; Table 7"}, "[6]": {"system": "Xanthomonas euvesicatoria strain Xvt28", "experiment": "MIC and MBC by serial dilution in 96-well plate", "assay_type": "cell-based", "conditions": "Xev Xvt28; Table 7", "protocol": "(§2) The effect of peptide length on the antimicrobial activity was investigated by deciding the minimal inhibitory concentration (MIC) and minimal bactericidal concentration (MBC) for each peptide against the pathogen with the media and growth conditions of phytopathogenic bacteria and E. coli as described in Table 1. Single bacterial colony grown on an optimal rich agar medium was picked, and each grew in 3 mL of the same rich liquid medium for 4 to 6 h.\n(§3) For experiments carried out in the rich medium, the bacterial broth culture was then diluted in the same medium to give a final concentration of OD600=0.08, and then further diluted 100 folds in the same medium.\n(§4) For experiments carried out in the minimal medium, the bacterial cells were collected from the bacterial liquid culture by centrifugation, re-suspended in an optimal minimal medium to give a final concentration of OD600=0.08, and then further diluted 100 folds in the same minimal medium.\n(§5) Fifty microliters of serially diluted peptides (2-fold the final concentration) were added in a 96-well polystyrene plate with 50 μL of the bacterial culture. The final concentrations of peptides were 0, 2, 4, 8, 16 and 32 μg/mL. The plates were incubated at an optimal temperature without shaking.\n(§6) MBC was determined as the lowest peptide concentration at which no colonies formed."}, "[7]": {"system": "Xanthomonas campestris pv. campestris strain Xcc17", "experiment": "MIC and MBC by serial dilution in 96-well plate", "assay_type": "cell-based", "conditions": "Xcc Xcc17; Table 7", "protocol": "as §2, §3, §4, §5, §6"}, "[8]": {"system": "Pseudomonas aeruginosa ATCC 9027", "conditions": "ATCC 9027"}, "[9]": {"system": "bacteria, fungal spores, and fungal mycelia", "assay_type": "cell-based", "conditions": "SYTOX Green, crude peptides, room temperature in dark for 2 h"}, "[10]": {"system": "Staphylococcus aureus BCRC 10777"}},
  "data": [
    {"substance": "Ac-WKKLKKLLKKL-NH2 [pepD3]", "values": [
      {"measurement": "MBC", "setting": "[1]", "value": 16.0, "unit": "µg/mL"},
      {"measurement": "MIC", "setting": "[1]", "value": 10.0, "unit": "µg/mL"},
      {"measurement": "viability at 1 h, 32 µg/mL", "setting": "in vitro", "value": "> 91", "unit": "%"},
      {"measurement": "MBC", "setting": "[2]", "value": 32, "unit": "µg/mL"},
      {"measurement": "MIC", "setting": "[2]", "value": 16, "unit": "µg/mL"},
      {"measurement": "MBC/MFC", "setting": "[3]", "value": "— (“—” indicates no antimicrobial activity being detected at the highest peptide concentration (32 μg/mL) tested in this study.)"},
      {"measurement": "MIC", "setting": "[3]", "value": "— (“—” indicates no antimicrobial activity being detected at the highest peptide concentration (32 μg/mL) tested in this study.)"},
      {"measurement": "MBC", "setting": "[4]", "value": 14.3, "unit": "µg/mL"},
      {"measurement": "MBC/MFC", "setting": "[4]", "value": 13.3, "unit": "µg/mL"},
      {"measurement": "MIC", "setting": "Erwinia chrysanthemi", "value": 32.0, "unit": "µg/mL"},
      {"measurement": "MBC/MFC", "setting": "Erwinia chrysanthemi; Ech, optimal minimal medium, crude peptides (Table 9)", "value": "— (“—” indicates no antimicrobial activity being detected at the highest peptide concentration (32 μg/mL) tested in this study.)"},
      {"measurement": "hemolytic activity", "setting": "red blood cells", "value": "very little or non-hemolytic activity"},
      {"measurement": "MBC", "setting": "[5]", "value": 4.4, "unit": "µg/mL"},
      {"measurement": "MIC", "setting": "[5]", "value": 3.6, "unit": "µg/mL"},
      {"measurement": "MBC", "setting": "[6]", "value": 3.0, "unit": "µg/mL"},
      {"measurement": "MIC", "setting": "[6]", "value": 3.0, "unit": "µg/mL"},
      {"measurement": "MBC", "setting": "[7]", "value": 2.0, "unit": "µg/mL"},
      {"measurement": "MIC", "setting": "[7]", "value": 2.0, "unit": "µg/mL"},
      {"measurement": "MBC", "setting": "[8]", "value": 8, "unit": "µg/mL"},
      {"measurement": "MIC", "setting": "[8]", "value": 4, "unit": "µg/mL"},
      {"measurement": "membranolytic effect on the cell walls of bacteria, fungal spores, and fungal mycelia", "setting": "[9]", "value": "significant membranolytic effect"},
      {"measurement": "MBC", "setting": "[10]", "value": 32, "unit": "µg/mL"},
      {"measurement": "MIC", "setting": "[10]", "value": 16, "unit": "µg/mL"}
    ]}
  ]
}
